No end group written: not given here.
How the values were obtained:
[1] = target: T1, NPY5 receptor (Homo sapiens, UniProt Q15761); assay: [125I]PYY competition binding, Sf9 membranes expressing NPY5; details: displacement of 0.050 nM [125I]PYY (porcine)
T1 construct: made in house; host or cells: Sf9 insect cells infected with recombinant baculovirus; purified membranes
T1 sequence (Q15761 with tags, fused parts or gaps): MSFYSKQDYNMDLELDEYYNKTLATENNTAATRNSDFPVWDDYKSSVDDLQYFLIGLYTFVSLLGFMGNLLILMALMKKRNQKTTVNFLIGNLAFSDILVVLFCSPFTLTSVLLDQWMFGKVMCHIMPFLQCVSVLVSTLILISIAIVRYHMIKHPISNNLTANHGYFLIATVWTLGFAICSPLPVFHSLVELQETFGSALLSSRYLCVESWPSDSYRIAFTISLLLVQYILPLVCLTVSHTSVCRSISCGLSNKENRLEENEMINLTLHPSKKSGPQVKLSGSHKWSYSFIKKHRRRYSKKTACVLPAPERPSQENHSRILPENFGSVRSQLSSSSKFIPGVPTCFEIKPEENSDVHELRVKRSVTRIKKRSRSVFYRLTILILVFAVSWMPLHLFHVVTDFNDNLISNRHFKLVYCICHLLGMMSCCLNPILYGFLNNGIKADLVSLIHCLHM
Description: (§1) 72 hours post-infection, a sample of cell suspension was analyzed for viability by trypan blue dye exclusion, and the remaining Sf9 cells were harvested via centrifugation (3000 rpm/10 minutes/4° C.).
(§2) Sf9 cell pellets prepared in Example 3 were resuspended in homogenization buffer (10 mM HEPES, 250 mM sucrose, 0.5 μg/ml leupeptin, 2 μg/ml Aprotinin, 200 μM PMSF, and 2.5 mM EDTA, pH 7.4) and homogenized using a POLYTRON homogenizer (setting 5 for 30 seconds). The homogenate was centrifuged (536×g/10 minutes/4° C.) to pellet the nuclei. The supernatant containing isolated membranes was decanted to a clean centrifuge tube, centrifuged (48,000×g/30 minutes, 4° C.) and resuspended in 30 ml homogenization buffer. This centrifugation and resuspension step was repeated twice. The final pellet was resuspended in ice cold Dulbecco's PBS containing 5 mM EDTA and stored at −80° C. in aliquots until needed. The protein concentration of the resulting membrane preparation was measured using the Bradford protein assay (Bio-Rad Laboratories, Hercules, Calif.).
(§3) Purified P2 membranes, prepared by the method given above in Example 4, were washed with PBS and resuspended by Dounce homogenization (tight pestle) in binding buffer (50 mM Tris-HCl, 5 mM KCl, 120 mM NaCl, 2 mM CaCl2, 1 mM MgCl2, 0.1% BSA, pH 7.4).
(§4) Nonspecific binding was determined in the presence of 1 μM NPY (human, American Peptide Co., Sunnyvale, Calif.) and accounted for less that 10% of total binding. Following a 2-hour incubation at room temperature, the reaction was terminated by rapid vacuum filtration. Samples were filtered over presoaked (in 1.0% polyethyeneimine for 2 hours prior to use) GF/C WHATMAN filters and rinsed 2 times with 5 mLs cold binding buffer without BSA. Remaining bound radioactivity was quantified by gamma counting. Ki and Hill coefficient (“nH”) were determined by fitting the Hill equation to the measured values with the aid of SIGMAPLOT software (SPSS Inc., Chicago).

[2] = target: T2, NPY5ΔY1IC3 chimeric receptor (Homo sapiens, UniProt Q15761, DEL238-360/INS235IRLKRRNNMMDKMRDNKY/K361S); assay: [125I]PYY competition binding, Sf9 membranes expressing NPY5ΔY1IC3; details: displacement of 0.050 nM [125I]PYY (porcine)
T2 construct: made in house; host or cells: Sf9 insect cells infected with recombinant baculovirus (pBacPAK9 vector); purified membranes
T2 sequence (Q15761 with tags, fused parts or gaps INS235IRLKRRNNMMDKMRDNKY/DEL238-360/K361S): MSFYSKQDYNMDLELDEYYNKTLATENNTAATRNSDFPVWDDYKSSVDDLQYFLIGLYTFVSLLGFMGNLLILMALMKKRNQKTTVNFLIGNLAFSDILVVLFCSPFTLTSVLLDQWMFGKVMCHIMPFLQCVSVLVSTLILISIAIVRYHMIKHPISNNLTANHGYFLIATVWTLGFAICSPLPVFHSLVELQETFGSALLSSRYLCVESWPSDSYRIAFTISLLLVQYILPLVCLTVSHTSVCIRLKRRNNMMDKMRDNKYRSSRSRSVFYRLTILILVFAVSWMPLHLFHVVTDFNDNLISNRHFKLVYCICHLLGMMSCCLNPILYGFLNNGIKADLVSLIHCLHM
Description: as §1, §2, §3, §4

[3] = target: T3, NPY5ΔY1CT chimeric receptor (Homo sapiens, UniProt P25929+Q15761); assay: [125I]PYY competition binding, Sf9 membranes expressing NPY5ΔY1CT; details: displacement of 0.050 nM [125I]PYY (porcine)
T3 construct: made in house; host or cells: Sf9 insect cells infected with recombinant baculovirus (pBacPAK9 vector); purified membranes
T3 sequence (Q15761+P25929 with tags, fused parts or gaps): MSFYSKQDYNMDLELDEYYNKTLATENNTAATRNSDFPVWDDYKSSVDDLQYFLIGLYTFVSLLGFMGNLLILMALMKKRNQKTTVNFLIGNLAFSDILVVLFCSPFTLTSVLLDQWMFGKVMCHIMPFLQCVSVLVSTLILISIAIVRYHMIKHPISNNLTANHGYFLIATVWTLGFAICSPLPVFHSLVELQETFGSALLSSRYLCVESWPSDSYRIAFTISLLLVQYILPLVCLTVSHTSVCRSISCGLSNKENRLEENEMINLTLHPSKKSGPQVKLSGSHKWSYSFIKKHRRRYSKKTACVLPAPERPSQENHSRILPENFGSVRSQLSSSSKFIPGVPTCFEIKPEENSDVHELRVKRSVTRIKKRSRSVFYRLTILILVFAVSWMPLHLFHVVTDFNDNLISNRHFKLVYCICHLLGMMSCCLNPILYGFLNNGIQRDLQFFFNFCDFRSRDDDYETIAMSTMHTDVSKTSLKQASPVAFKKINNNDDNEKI
Description: as §1, §2, §3, §4

[4] = target: T4, Human Y5 receptor (NPY5) (human, UniProt Q15761 1-445); assay: displacement of 0.050 nM [125I]PYY (porcine) from Sf9 membranes, filtration
T4 construct: Full-length receptor expressed by baculovirus in Sf9 insect cells; assayed in purified Sf9 membranes, not on whole cells; also called native NPY5 receptor; hY5
T4 sequence: T1 sequence (Q15761 with tags, fused parts or gaps)
Description: (§5) Following a 2-hour incubation at room temperature, the reaction was terminated by rapid vacuum filtration. Samples were filtered over presoaked (in 1.0% polyethyeneimine for 2 hours prior to use) GF/C WHATMAN filters and rinsed 2 times with 5 mLs cold binding buffer without BSA. Remaining bound radioactivity was quantified by gamma counting. Kᵢ and Hill coefficient (“nH”) were determined by fitting the Hill equation to the measured values with the aid of SIGMAPLOT software (SPSS Inc., Chicago).

[5] = target: T5, Human NPY5ΔY1CT chimera (human); assay: as above
T5 construct: Human NPY5 with its C-terminal intracellular domain replaced by that of human Y1; Expressed in Sf9 cells; assayed in purified membranes
T5 chain: T3 sequence (Q15761+P25929 with tags, fused parts or gaps)
Description: as §5

**Q.** For human NPY 3-36 [HNPY 3-36], which “nH (Hill coefficient)” value [1] is on record?
**A.** 0.7

**Q.** What about the “nH (Hill coefficient)” value [2] of the same molecule?
**A.** 1.2

**Q.** What about the “nH (Hill coefficient)” value [3] of the same molecule?
**A.** 0.6

**Q.** How did the “nH (Hill coefficient)” value [1] turn out when human D-Trp 32 NPY was run?
**A.** 0.7

**Q.** What about the “nH (Hill coefficient)” value [2] of the same molecule?
**A.** 0.8

**Q.** What about the “nH (Hill coefficient)” value [3] of the same molecule?
**A.** 0.9

**Q.** For human NPY 13-36 [HNPY 13-36], which “nH (Hill coefficient)” value [1] is on record?
**A.** 0.7

**Q.** What about the “nH (Hill coefficient)” value [2] of the same molecule?
**A.** 1.0

**Q.** And the “nH (Hill coefficient)” value [3]?
**A.** 0.5

**Q.** human NPY 1-36 [HNPY 1-36] was tested. Which “nH (Hill coefficient)” value [1] did it give?
**A.** 0.7

**Q.** What about the “nH (Hill coefficient)” value [2] of the same molecule?
**A.** 1.0

**Q.** And the “nH (Hill coefficient)” value [3]?
**A.** 0.7

**Q.** With PAEDMARYYSALRHYINLITRQRY (peptide, UniProt P01303 41-64, looked up, ends and bridges not checked, range 13-36; also called HNPY 13-36) [human NPY 13-36] as the molecule, how does the Ki [4] read?
**A.** 20 nM

**Q.** For APLEPVYPGDNATPEQMAQYAADLRRYINMLTRPRY (peptide, UniProt P01298 30-65, looked up, also called hPP; HPP) [human pancreatic polypeptide], which Ki [5] is on record?
**A.** 0.31 nM

Source: patent publication US20050019869A1, “Chimeric neuropeptide Y receptors” (priority 2000, published 2005)
